According to patent US20230227500A1, “NANOPARTICLE-LIKE DELIVERY SYSTEM” (Evox Therapeutics Ltd, priority 2019, published 2023):
Blank lines part the entries; values can stand above or below the compound they belong to. Where a SMILES comes first, the peptide text is derived from it. Bridges are numbered along the chain shown (N, C = ends). [ ]: non-standard residue; d: D form. R8 = C=CCCCCCC[C@@](C)(N)C(=O)O; S8 = C=CCCCCCC[C@](C)(N)C(=O)O; S5 = C=CCCC[C@](C)(N)C(=O)O

Assays:
HEK293T Stop-Light cells [1] = assay: Effect of additives on Cas9 RNP delivery, stop-light reporter; format: cell-based; conditions: FIG. 11
Experimental: In order to investigate the effect of additives on the efficacy of the peptides/nanoparticles of the invention a range of different additives were tested and the effect on delivery of Cas9 ribonuncleoprotein (RNP) was examined using the same stop-light reporter system described above and illustrated in FIG. 5.
Peptides Oct215 or Oct2815 were tested. Cas9 RNP was formulated in HBG buffer (HEPES buffered glucose) with either glycerol, PEG, PVP10, PVP55, PVA18, PVA40 or PVA-PEG. Oct215 or 2815 was added and incubated at room temperature for 40 min to allow peptide nanoparticles to form (1.1:1 sgRNA to Cas9 and 1:150 RNP:CPP).
Following incubation HEK293T Stop-Light cells were treated with the peptide RNP complex (25 ng Cas9 added to each well). After 72 h of treatment, eGFP expression was analysed by fluorescence-activated cell sorting (FACS) analysis. Gene editing efficiency was calculated as the percentage of eGFP expressing cells in the viable mCherry expressing population, mCherry being the marker for reporter construct expression and eGFP for gene editing of said construct.

HEK293T Stop-Light cells [2] = assay: Cas9 RNP delivery, stop-light reporter gene editing (eGFP by FACS); format: cell-based; conditions: FIG. 5B
From the text: Delivery of proteins is another important modality for the peptides of the present invention. In order to investigate the ability of the peptides to deliver protein, a stop-light reporter system was employed. FIG. 5A illustrates the stop-light reporter system, which is a quick and simple system to evaluate indel formation in stably transduced cells. Cells are transfected with a construct containing an mCherry gene followed by two enhanced green fluorescent protein (eGFP) genes that are shifted out of frame by +1 and +2 nucleotides, respectively. The mCherry gene is constituently expressed, while the eGFP genes are only expressed if a double stranded break in the linker creates insertions or deletions of +/−1 or 2 bp. This occurs upon the effective delivery of Cas9 RNP system to the nucleus of cells, which leads to one of the two eGFP genes being in frame and thus expressed. […]
5k HEK293T Stop-Light cells were treated with 50 ng ([…]) Cas9 that was formulated with various peptides at different peptide-to-Cas9 RNP MRs (50:1-100:1). After 72 h of treatment, eGFP expression was analysed by fluorescence-activated cell sorting (FACS) analysis. Gene editing efficiency was calculated as a percentage of cells in the cell population where eGFP expression was induced by the treatment.

HeLa pluc705 cells = assay: HeLa pluc705 splice correction reporter, delivery of SSOs; format: cell-based; conditions: 100 nM 2'OMe SSO, 24 h, MR3-MR10, FIG. 1B
From the text: To evaluate the ability of peptides of the invention to effectively deliver SSOs into cells, the HeLa pluc705 splice correction reporter system was used as a model (FIG. 1A). In this assay, HeLa cells are stably transfected with a luciferase endocing sequence that is interrupted by the β-globin pre-mRNA carrying a crypting splice site. If the SSO is effectively delivered to the cells and reaches the cell nucleus, it masks the aberrant splicing site (depicted ON-705 on the right-hand side of FIG. 1A). By redirecting the splicing, it will give rise to the production of functional luciferase protein. The luciferase enzyme activity thus acts as a measure to assess the delivery efficacy of the SSOs. This model is known for being an excellent positive read-out system with wide dynamic range for evaluating and comparing the delivery of SSOs and different delivery vectors.
The peptides were formulated with 2′-O-methyl phosphorothioate (2′OMe)-based SSOs at different peptide-to-SSO molar ratios (MRs), namely MR3, MR5, MR7 and MR10. The HeLa pluc705 cells were treated with various peptide/SSO nanoformulations at 100 nM SSO concentration for 24 h. After this time, the luciferase activity was measured. Delivery efficacy was expressed as a fold-increase over the values from untreated (UT) cells (ie. fold increase in splice correction).

mice = assay: Tolerability of peptide/mRNA formulation after intravenous injection; format: in vivo; conditions: 6.25 mg/kg of mRNA/25 mg/kg of peptide, i.v.
Experimental: Delivery of mRNA was tested using the 246, Oct815 and Oct2815 peptides and a luciferase-encoding mRNA (Luc mRNA). Various peptides were formulated at 1.25 mg/kg of mRNA dosing, at a peptide-to-mRNA weight ratio 4. Oct2815 was also formulated at 6.25 mg/kg of mRNA dosing, at a peptide-to-mRNA weight ratio 4. The formulations were subsequently injected intravenously into NMRI mice. After 24 h of treatment, the mice were sacrificed and the lungs, heart, liver, spleen and kidneys dissected. Luciferase activity was measured in the dissected tissues by bioluminescence imaging on an IVIS in vivo imaging system.
The peptides of the invention are believed to be tolerated in a dose of up to 30 mg/kg in mice, which is at least 10-fold higher than the dose commonly known to be tolerated when using any CPP of the prior art in vivo.

[3] = In vivo delivery and biodistribution of Cy5-labelled SSO, IVIS imaging of dissected tissues; set-up: species or system NMRI mice; conditions: 2.5 mg/kg SSO, MR10, i.v., 48 h, FIG. 2(B)
Experimental: In order to investigate the in vivo delivery capacity and biodistribution profile of the peptide/SSO nanoparticles, Oct2815 peptide was formulated at a dose of 50 μg (2.5 mg/kg) of Cy5-labelled 2′-OMe/LNA mixmer-based SSO (at MR10) and then injected intravenously into NMRI mice. After 48 h of treatment, the fluorescence values were measured from the dissected tissues (brain, liver, lungs, heart, G.I. tract, spleen, muscles and kidneys) of the animals with an IVIS in vivo imager.

Compound: H-L A(R8) K L A K A A A K L L K A A(S8) A K A L-NH2 (H-L[R8]KLAKAAAKLLKA[S8]AKAL-NH2; staple 2-15; SMILES CC(C)C[C@H](NC(=O)[C@H](C)NC(=O)[C@H](CCCCN)NC(=O)[C@H](C)NC(=O)[C@]1(C)CCCCCCC=CCCCCCC[C@@](C)(NC(=O)[C@@H](N)CC(C)C)C(=O)N[C@@H](CCCCN)C(=O)N[C@@H](CC(C)C)C(=O)N[C@@H](C)C(=O)N[C@@H](CCCCN)C(=O)N[C@@H](C)C(=O)N[C@@H](C)C(=O)N[C@@H](C)C(=O)N[C@@H](CCCCN)C(=O)N[C@@H](CC(C)C)C(=O)N[C@@H](CC(C)C)C(=O)N[C@@H](CCCCN)C(=O)N[C@@H](C)C(=O)N1)C(N)=O) [Oct215]
gene editing efficiency (efficacy of cargo delivery) with PVA-PEG (HEK293T Stop-Light cells [1]; 25 ng Cas9, 1:150 RNP:CPP, HBG buffer with PVA-PEG, 72 h): up to 60%
effect of additives on efficacy (HEK293T Stop-Light cells [1]): enhanced still further by the presence of different additives

Compound: H-L A K L A K A A(R8) A K L L K A A(S8) A K A L-NH2 (H-LAKLAKA[R8]AKLLKA[S8]AKAL-NH2; staple 8-15; SMILES CC(C)C[C@H](NC(=O)[C@H](C)NC(=O)[C@H](CCCCN)NC(=O)[C@H](C)NC(=O)[C@]1(C)CCCCCCC=CCCCCCC[C@@](C)(NC(=O)[C@H](C)NC(=O)[C@H](CCCCN)NC(=O)[C@H](C)NC(=O)[C@H](CC(C)C)NC(=O)[C@H](CCCCN)NC(=O)[C@H](C)NC(=O)[C@@H](N)CC(C)C)C(=O)N[C@@H](C)C(=O)N[C@@H](CCCCN)C(=O)N[C@@H](CC(C)C)C(=O)N[C@@H](CC(C)C)C(=O)N[C@@H](CCCCN)C(=O)N[C@@H](C)C(=O)N1)C(N)=O) [Oct815]
relative potency among peptides (Cas9 RNP gene editing) (HEK293T Stop-Light cells [2]): most potent
SSO delivery and splice switching activity (fold increase in splice correction, luciferase activity) (HeLa pluc705 cells): able to mediate effective SSO delivery and induce strong splice switching activity

accumulation of SSO in liver in comparison with SSO alone (fold enrichment) [3]: 2.5 fold
accumulation of SSO in lungs in comparison with SSO alone (fold enrichment) [3]: 3.5 fold
accumulation of SSO in spleen in comparison with SSO alone (fold enrichment) [3]: 5 fold
Compound: C=CCCCCCC[C@@](C)(NC(=O)[C@H](C)NC(=O)[C@H](CCCCN)NC(=O)[C@H](C)NC(=O)[C@H](CC(C)C)NC(=O)[C@H](CCCCN)NC(=O)[C@@](C)(CCCCCCC=C)NC(=O)[C@@H](N)CC(C)C)C(=O)N[C@@H](C)C(=O)N[C@@H](CCCCN)C(=O)N[C@@H](CC(C)C)C(=O)N[C@@H](CC(C)C)C(=O)N[C@@H](CCCCN)C(=O)N[C@@H](C)C(=O)N[C@@](C)(CCCCCCC=C)C(=O)N[C@@H](C)C(=O)N[C@@H](CCCCN)C(=O)N[C@@H](C)C(=O)N[C@@H](CC(C)C)C(N)=O [Oct2815, H-L A(R8) K L A K A A(R8) A K L L K A A(S8) A K A L-NH2] (H-L[R8]KLAKA[R8]AKLLKA[S8]AKAL-NH2)
side-effects at very high dosing (mice): without any apparent side-effects

Compound: H-L A K L A K A A(R8) A K L L K A A(S5) A K A L-NH2 (H-LAKLAKA[R8]AKLLKA[S5]AKAL-NH2; staple 8-15; SMILES CC(C)C[C@H](NC(=O)[C@H](C)NC(=O)[C@H](CCCCN)NC(=O)[C@H](C)NC(=O)[C@]1(C)CCCC=CCCCCCC[C@@](C)(NC(=O)[C@H](C)NC(=O)[C@H](CCCCN)NC(=O)[C@H](C)NC(=O)[C@H](CC(C)C)NC(=O)[C@H](CCCCN)NC(=O)[C@H](C)NC(=O)[C@@H](N)CC(C)C)C(=O)N[C@@H](C)C(=O)N[C@@H](CCCCN)C(=O)N[C@@H](CC(C)C)C(=O)N[C@@H](CC(C)C)C(=O)N[C@@H](CCCCN)C(=O)N[C@@H](C)C(=O)N1)C(N)=O) [compound 246]
SSO delivery and splice switching activity (fold increase in splice correction, luciferase activity) (HeLa pluc705 cells): able to mediate effective SSO delivery and induce strong splice switching activity
